Experimental data from paper PMC9495854, “Novel Phenothiazine/Donepezil-like Hybrids Endowed with Antioxidant Activity for a Multi-Target Approach to the Therapy of Alzheimer’s Disease” (Antioxidants, 2022).

How the values were obtained:
[1] = MTT cell viability assay, HepG2; assay type: cell-based; settings: human, HepG2 cells; for IC50 at 1 h: HepG2, 1 h exposure; for IC50 at 24 h: HepG2, 24 h exposure, read-out: MTT cytotoxicity IC50 ± SEM HepG2 24 h
Protocol: (§1) Human hepatocellular liver carcinoma (HepG2) cell line and human neuroblastoma cell line, SH-SY5Y, were purchased from the American Type Culture Collection (ATCC, Manassas, VA, USA) and maintained at 37 °C in a humidified atmosphere (95% air and 5% carbon dioxide), and they were periodically screened for contamination. HepG2 cells were cultured in Eagle’s Minimum Essential Medium (MEM, Euroclone S.p.A., Pero, MI, Italy), supplemented with 10% Fetal Bovine Serum (FBS, Euroclone S.p.A., Pero, MI, Italy), 1% L-glutamine (Euroclone S.p.A., Pero, MI, Italy), 100 U/mL penicillin/streptomycin (Euroclone S.p.A., Pero, MI, Italy), 1% Non-Essential Amino Acids (NEAA, Euroclone S.p.A., Pero, MI, Italy). SH-SY5Y cells were grown in a 1:1 mixture of Dulbecco’s modified Eagle’s medium (DMEM)—high glucose (Euroclone S.p.A., Pero, MI, Italy) and Ham’s F12 Medium (Euroclone S.p.A., Pero, MI, Italy) supplemented with 10% FBS, 1% L-glutamine and 100 U/mL penicillin/streptomycin. For cell assays, cells were trypsinized using Trypsin-EDTA 1X in PBS (Euroclone S.p.A., Pero, MI, Italy).
(§2) HepG2 and SH-SY5Y cell viability was assessed as previously reported by using a conventional 3-(4,5-dimethylthiazol-2-yl)-2,5-diphenyltetrazolium bromide (MTT) assay. In brief, viable cells were seeded and grown for 24 h into a sterile 96-well cell culture cluster (Corning, Sigma-Aldrich, St. Louis, MO, USA) in a complete medium and maintained at 37 °C in a humidified atmosphere with 5% CO2. The cells were then added with different concentrations of each compound for a period of 1 h or 24 h. At the end, the culture medium was replaced by a solution of 0.5 mg/mL MTT (Sigma-Aldrich, St. Louis, MO, USA) in PBS. After 2 h of incubation at 37 °C in 5% CO2, the supernatant was carefully removed from each well, and the formazan crystals were dissolved in DMSO. The absorbance values were measured at 570 nm using Tecan Infinite M1000 Pro (Tecan, Cernusco S.N., Italy) and DMSO medium as blank solution. The results were reported as % cell viability = [optical density (OD) of tested compound/medium OD of control cells] × 100. The results are expressed as mean ± SEM of at least three independent measurements in triplicate.

[2] = tested on: SH-SY5Y cells; test: MTT cell viability assay, SH-SY5Y; assay type: cell-based; settings: 24 h exposure
Protocol: as §1, §2

Row | Structure (SMILES) | IC50 at 1 h [1] [µM] | IC50 at 24 h [1] [µM] | MTT cytotoxicity IC50 ± SEM SHSY-5Y 24 h [2]
1 | O=C(NCC1CCN(Cc2ccccc2)CC1)c1ccc2c(c1)Nc1ccccc1S2 [Compound 11a, N-((1-Benzylpiperidin-4-yl)methyl)-10H-phenothiazine-2-carboxamide] | > 100 | 62.7 ± 0.7 | –
2 | O=C(NCC1CCN(Cc2ccccc2Cl)CC1)c1ccc2c(c1)Nc1ccccc1S2 [Compound 11b, N-((1-(2-Chlorobenzyl)piperidin-4-yl)methyl)-10H-phenothiazine-2-carboxamide] | > 100 | 27.7 ± 0.4 | –
3 | Cc1ccccc1CN1CCC(CNC(=O)c2ccc3c(c2)Nc2ccccc2S3)CC1 [Compound 11c, N-((1-(2-Methylbenzyl)piperidin-4-yl)methyl)-10H-phenothiazine-2-carboxamide] | > 100 | 35.2 ± 1.1 | –
4 | O=C(NCC1CCN(Cc2ccccc2F)CC1)c1ccc2c(c1)Nc1ccccc1S2 [Compound 11d, N-((1-(2-Fluorobenzyl)piperidin-4-yl)methyl)-10H-phenothiazine-2-carboxamide] | > 100 | 41 ± 0.2 | –
5 | COc1cccc(CN2CCC(CNC(=O)c3ccc4c(c3)Nc3ccccc3S4)CC2)c1 [Compound 11e, N-((1-(3-Methoxybenzyl)piperidin-4-yl)methyl)-10H-phenothiazine-2-carboxamide] | > 100 | 14.9 ± 0.61 | –
6 | O=C(NCCN1CCN(Cc2ccccc2)CC1)c1ccc2c(c1)Nc1ccccc1S2 [Compound 12a, N-(2-(4-Benzylpiperazin-1-yl)ethyl)-10H-phenothiazine-2-carboxamide] | > 100 | 28.8 ± 0.42 | –
7 | O=C(NCCN1CCN(Cc2ccccc2Cl)CC1)c1ccc2c(c1)Nc1ccccc1S2 [Compound 12b, N-(2-(4-(2-Chlorobenzyl)piperazin-1-yl)ethyl)-10H-phenothiazine-2-carboxamide] | > 100 | > 100 | –
8 | Cc1ccccc1CN1CCN(CCNC(=O)c2ccc3c(c2)Nc2ccccc2S3)CC1 [Compound 12c, N-(2-(4-(2-Methylbenzyl)piperazin-1-yl)ethyl)-10H-phenothiazine-2-carboxamide] | > 100 | > 100 | –
9 | O=C(NCCN1CCN(Cc2ccccc2F)CC1)c1ccc2c(c1)Nc1ccccc1S2 [Compound 12d, N-(2-(4-(2-Fluorobenzyl)piperazin-1-yl)ethyl)-10H-phenothiazine-2-carboxamide] | > 100 | 42.9 ± 1.81 | no cytotoxic effects
10 | CC(=O)N1c2ccccc2Sc2ccc(C(=O)NCCN3CCN(Cc4ccccc4Cl)CC3)cc21 [Compound 13, 10-Acetyl-N-(2-(4-(2-chlorobenzyl)piperazin-1-yl)ethyl)-10H-phenothiazine-2-carboxamide] | > 100 | > 100 | –
